Values quoted from earlier work, collected in US20110165699A1 (priority 2009, published 2011).

## CCc1c2c(nc3ccc(O)cc13)-c1cc3c(c(=O)n1C2)COC(=O)[C@]3(O)CC [SN-38, 7-ethyl-10-hydroxy-camptotheen]
Sasaki, Jpn. J. Cancer 1995
  inter-patient variability, CV in AUCs: 38.91%
Has been reported
  intra- and inter-individual pharmacokinetic variability: more than 40 fold
